According to ChEMBL document CHEMBL1201862, “PubChem BioAssay data set” (2004):
Active and inactive are the calls of the source.

Experiments:
[1] = test system: Streptococcus sp. 'group A'; assay: growth inhibition of control SK(-) GAS strain, dose response, counter-screen for streptokinase expression inhibitor project, luminescence, kanamycin, BacTiterGlo, confirmation (AID 1900); type: functional, organism-based
[2] = molecular target: G-protein coupled receptor 35 (Homo sapiens, UniProt Q9HC97); assay: GPR35 antagonists blocking zaprinast-driven arrestin recruitment, primary screen, imaging, U2OS, beta-arrestin-GFP, zaprinast agonist (AID 2058); type: functional;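 further: antagonist potency meaning inhibition of agonist-induced arrestin redistribution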
[3] = cytotoxicity toward NIH3T3 fibroblasts, dose response, counter-screen, cell-based, ATP luminescence, mouse fibroblasts (AID 2010); type: functional;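 further: cells exposed to compound for about 90 hours before reading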
[4] = molecular target: Voltage-dependent T-type calcium channel subunit alpha-1H (Homo sapiens, UniProt O95180); type: functional;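 further: channel activity triggered by adding a high calcium stimulation buffer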
Streptokinase A = molecular target: T1, Streptokinase A (Streptococcus pyogenes serotype M1, UniProt P10520); assay: S. pyogenes streptokinase expression inhibitors, potency, dose response, plasminogen activation absorbance, OD405 (AID 1914); type: functional, Streptococcus pyogenes M1 GAS;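 further: secreted streptokinase activity via plasminogen activation per viability signal from cell pellet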
T1 sequence (P10520 whole entry): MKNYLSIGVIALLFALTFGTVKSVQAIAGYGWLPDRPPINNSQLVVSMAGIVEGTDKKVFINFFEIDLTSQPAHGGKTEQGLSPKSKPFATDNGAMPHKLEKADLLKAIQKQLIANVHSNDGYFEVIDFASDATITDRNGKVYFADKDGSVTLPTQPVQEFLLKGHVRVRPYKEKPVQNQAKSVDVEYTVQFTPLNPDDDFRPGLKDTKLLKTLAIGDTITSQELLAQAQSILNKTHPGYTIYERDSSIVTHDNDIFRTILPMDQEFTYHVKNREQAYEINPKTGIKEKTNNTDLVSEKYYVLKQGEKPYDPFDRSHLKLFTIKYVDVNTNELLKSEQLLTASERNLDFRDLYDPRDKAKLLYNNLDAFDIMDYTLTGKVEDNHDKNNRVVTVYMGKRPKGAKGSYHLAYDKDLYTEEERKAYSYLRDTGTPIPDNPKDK

[5] = molecular target: Peroxisome proliferator-activated receptor gamma/Nuclear receptor coactivator 3 (Homo sapiens, UniProt P37231); type: functional;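 further: agonist potency for raising coactivator recruitment to the receptor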
[6] = inhibitors of intracellular T. cruzi replication, confirmation, NIH3T3 host cells, beta-gal luminescence (AID 2044); type: functional, cell-based;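 further: intracellular parasites grown in NIH/3T3 mouse fibroblasts as host cells; luminescent beta-galactosidase reporter signal from transgenic T. cruzi replicating inside host cells; inhibitors lower the luminescence signal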
[7] = molecular target: Peroxisome proliferator-activated receptor gamma/Nuclear receptor coactivator 2 (Homo sapiens, UniProt P37231); type: functional;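 further: agonist potency for raising coactivator recruitment to the receptor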
[8] = molecular target: Peroxisome proliferator-activated receptor gamma/Nuclear receptor coactivator 1 (Homo sapiens, UniProt P37231); type: functional;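 further: agonist potency as compounds enhance coactivator SRC-1 recruitment to PPARgamma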
Streptococcus = assay: Group A Streptococcus viability loss, dose response, counter-screen for streptokinase expression inhibitor project, luminescence, BacTiterGlo (AID 1915); type: functional, organism-based;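 further: potency for reduction of bacterial viability or growth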
[9] = molecular target: Neuropeptide Y receptor type 2 (Homo sapiens, UniProt P49146); assay: Fluorescence-based cell-based high-throughput dose response assay for agonists of NPY-Y2. [Related pubchem assays: 1703 (Screening assay (CNGC inhibitors).), 1359 (Screening assay (NPY-Y2 potentiators or agonists).), 1304 (Screening assay (NPY-Y1 potentiators or agonists).), 1710 (Screening assay (NPY-Y2 agonists).), 1791 (Summary AID.)]; type: functional
[10] = molecular target: Neuropeptide Y receptor type 1 (Homo sapiens, UniProt P25929); assay: Fluorescence-based counterscreen for agonists of NPY-Y2: cell-based high-throughput dose response assay for agonists of NPY-Y1.; type: functional
HEK293 = assay: Fluorescence-based counterscreen for potentiators or agonists of NPY-Y2: cell-based high-throughput dose response assay to identify inhibitors of cyclic nucleotide gated ion channel (CNGC) activity. In this assay, the parental HEK293 cell line transfected with a cyclic-nucleotide gated ion channel (CNGC)-based cAMP sensor is used to measure inhibition of isoproterenol-induced CNGC activity by test compound.; type: functional; details: Homo sapiens;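 further: stimulus is 1 µM isoproterenol at EC100 plus PDE inhibitor Ro 20-1724 at 25 µM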
[11] = molecular target: T2, Polyadenylate-binding protein 1 (Homo sapiens, UniProt P11940); assay: PABP1 MLLE–PAM2 interaction inhibitors, dose response, miRNA deadenylation inhibitor project, biochemical, fluorescence polarization, Cy5-PAM2 peptide, secondary (AID 602260); type: functional; details: read-out: IC50_Mean
[12] = molecular target: T2, Polyadenylate-binding protein 1; assay: PABP1 MLLE–PAM2 binding inhibitor potency, dose response, biochemical, fluorescence polarization, FITC-PAM2 peptide (AID 602259); type: functional; details: read-out: IC50_Mean
Vero = Vero cell cytotoxicity, cytotoxicity control for flavivirus capping enzyme inhibitors (AID 588742); type: functional; details: Chlorocebus sabaeus
[13] = molecular target: T3, Serine/threonine-protein phosphatase (Candida dubliniensis (strain CD36 / CBS 7987 / NCPF 3949 / NRRLY-17841) (Yeast), UniProt B9W6M3); assay: calcineurin pathway inhibitors in yeast reporter, dose response, S. cerevisiae, CDRE-lacZ, luminescence, secondary (AID 2388); type: functional, cell-based;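 further: yeast reporter cells carrying a calcineurin-responsive lacZ construct stimulated with calcium chloride; luminescent beta-galactosidase reporter signal in whole cells rather than isolated phosphatase activity; potency for inhibition where a drop in reporter signal means calcineurin blockade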
T3 sequence (B9W6M3 whole entry): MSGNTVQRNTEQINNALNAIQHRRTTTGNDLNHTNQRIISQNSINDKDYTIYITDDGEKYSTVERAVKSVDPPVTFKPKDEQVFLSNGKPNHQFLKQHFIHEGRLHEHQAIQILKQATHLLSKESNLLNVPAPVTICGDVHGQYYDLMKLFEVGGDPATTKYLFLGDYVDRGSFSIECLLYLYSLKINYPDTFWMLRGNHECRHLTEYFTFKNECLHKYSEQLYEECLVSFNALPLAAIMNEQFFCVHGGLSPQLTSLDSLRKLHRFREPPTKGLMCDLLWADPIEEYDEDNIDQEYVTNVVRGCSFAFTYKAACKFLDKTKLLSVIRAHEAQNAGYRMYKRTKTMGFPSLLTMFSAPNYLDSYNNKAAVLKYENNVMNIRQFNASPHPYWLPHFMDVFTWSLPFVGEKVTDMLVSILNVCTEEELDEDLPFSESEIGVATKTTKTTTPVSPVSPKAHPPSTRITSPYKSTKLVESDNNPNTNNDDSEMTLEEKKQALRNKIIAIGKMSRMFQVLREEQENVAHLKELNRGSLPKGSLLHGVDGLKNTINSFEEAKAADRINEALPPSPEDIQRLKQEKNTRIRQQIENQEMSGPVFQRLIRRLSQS

Genome polyprotein = Genome polyprotein (dengue virus type 2, UniProt P29990); assay: Dengue-2 NS5 methyltransferase inhibitors, primary screen, biochemical, confirmation dose response (AID 588689); type: functional
[14] = C. albicans growth with fluconazole, confirmation, fluorescence, retest (AID 2467); type: functional, cell-based
NS3 = NS3 (Hepatitis C virus, UniProt A3EZJ3); assay: PubChem AID 2173; parameters: species or system Hepacivirus hominis
[15] = molecular target: Heat shock protein HSP 90-alpha (Homo sapiens, UniProt P07900); type: functional, organism-based
[16] = NIH-3T3 fibroblast cytotoxicity, dose response, cytotoxicity control, cell-based, fluorescence, Alamar Blue, secondary assay (AID 2327); type: functional;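 further: NIH-3T3 mouse fibroblasts cultured with fluconazole at 8 µg/mL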
[17] = molecular target: ATP-dependent molecular chaperone HSP82 (Candida albicans (strain WO-1) (Yeast), UniProt C4YTQ8); assay: loss of DOC-induced GRE-beta-galactosidase reporter signal, dose response, Hsp90 inhibitor project, S. cerevisiae, luminescence (AID 2400); type: functional, cell-based;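 further: beta-galactosidase luminescence from glucocorticoid response element reporter as proxy for Hsp90 function; inhibitor potency where signal loss means Hsp90 inhibition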
[18] = HEp-2 cell cytotoxicity, dose response, cytotoxicity control for RSV inhibitor project, HTS (AID 2410); type: functional; details: human respiratory syncytial virus
[19] = molecular target: Peroxisome proliferator-activated receptor gamma/Nuclear receptor corepressor 2 (Homo sapiens, UniProt P37231+Q9Y618); type: functional
[20] = molecular target: Photoreceptor-specific nuclear receptor (Homo sapiens, UniProt Q9Y5X4); type: functional;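 further: potency for compounds that break the NR2E3 corepressor complex and count as activators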
[21] = molecular target: Eukaryotic translation initiation factor 4E (Mus musculus, UniProt P63073); assay: eIF4E–eIF4G protein interaction inhibitors, dose response, biochemical, TR-FRET (AID 855); type: functional;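 further: potency for disrupting eIF4E binding to eIF4GI seen as loss of FRET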
[22] = Luminescence-based counterscreen assay for KLF5 inhibitors: dose response cell-based high throughput screening assay to identify cytotoxic compounds using the IEC-6 intestinal epithelial cell line. [Related pubchem assays: 1700 (Primary screen.), 1834 (Confirmation screen.), 1858 (Summary AID.), 1905 (Counterscreen.)]; type: functional

T2 sequence (P11940 whole entry): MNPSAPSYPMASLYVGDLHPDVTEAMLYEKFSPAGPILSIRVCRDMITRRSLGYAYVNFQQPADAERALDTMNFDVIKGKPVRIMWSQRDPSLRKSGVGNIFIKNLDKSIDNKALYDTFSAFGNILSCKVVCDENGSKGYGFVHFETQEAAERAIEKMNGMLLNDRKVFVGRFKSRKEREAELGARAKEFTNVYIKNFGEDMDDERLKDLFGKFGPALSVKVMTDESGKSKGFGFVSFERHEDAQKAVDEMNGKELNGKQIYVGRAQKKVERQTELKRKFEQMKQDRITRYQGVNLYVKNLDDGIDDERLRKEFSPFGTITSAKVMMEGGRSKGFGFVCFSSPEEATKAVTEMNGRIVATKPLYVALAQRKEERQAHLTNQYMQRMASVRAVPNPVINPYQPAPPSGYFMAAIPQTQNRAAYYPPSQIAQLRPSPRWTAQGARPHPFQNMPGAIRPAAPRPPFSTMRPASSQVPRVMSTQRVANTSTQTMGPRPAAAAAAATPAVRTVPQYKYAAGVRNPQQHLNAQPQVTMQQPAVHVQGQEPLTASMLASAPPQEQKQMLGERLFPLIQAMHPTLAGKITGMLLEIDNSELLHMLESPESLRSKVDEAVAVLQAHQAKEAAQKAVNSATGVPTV
Peroxisome proliferator-activated receptor gamma/Nuclear receptor corepressor 2, sequence (P37231 whole entry): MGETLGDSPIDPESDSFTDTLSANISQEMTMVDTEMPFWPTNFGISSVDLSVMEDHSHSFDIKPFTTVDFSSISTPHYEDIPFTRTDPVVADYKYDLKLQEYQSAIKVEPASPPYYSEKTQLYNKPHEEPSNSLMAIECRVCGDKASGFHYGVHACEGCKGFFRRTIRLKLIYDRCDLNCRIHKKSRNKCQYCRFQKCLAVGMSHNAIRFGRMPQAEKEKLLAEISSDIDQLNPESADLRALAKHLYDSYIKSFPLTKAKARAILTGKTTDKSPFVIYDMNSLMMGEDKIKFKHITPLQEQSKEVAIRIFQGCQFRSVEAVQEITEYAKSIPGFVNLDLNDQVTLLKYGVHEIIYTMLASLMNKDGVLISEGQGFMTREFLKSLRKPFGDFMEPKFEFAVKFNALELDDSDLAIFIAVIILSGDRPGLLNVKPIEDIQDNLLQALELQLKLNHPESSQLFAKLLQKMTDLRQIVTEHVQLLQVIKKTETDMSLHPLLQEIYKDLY
Peroxisome proliferator-activated receptor gamma/Nuclear receptor corepressor 2, sequence (Q9Y618 whole entry): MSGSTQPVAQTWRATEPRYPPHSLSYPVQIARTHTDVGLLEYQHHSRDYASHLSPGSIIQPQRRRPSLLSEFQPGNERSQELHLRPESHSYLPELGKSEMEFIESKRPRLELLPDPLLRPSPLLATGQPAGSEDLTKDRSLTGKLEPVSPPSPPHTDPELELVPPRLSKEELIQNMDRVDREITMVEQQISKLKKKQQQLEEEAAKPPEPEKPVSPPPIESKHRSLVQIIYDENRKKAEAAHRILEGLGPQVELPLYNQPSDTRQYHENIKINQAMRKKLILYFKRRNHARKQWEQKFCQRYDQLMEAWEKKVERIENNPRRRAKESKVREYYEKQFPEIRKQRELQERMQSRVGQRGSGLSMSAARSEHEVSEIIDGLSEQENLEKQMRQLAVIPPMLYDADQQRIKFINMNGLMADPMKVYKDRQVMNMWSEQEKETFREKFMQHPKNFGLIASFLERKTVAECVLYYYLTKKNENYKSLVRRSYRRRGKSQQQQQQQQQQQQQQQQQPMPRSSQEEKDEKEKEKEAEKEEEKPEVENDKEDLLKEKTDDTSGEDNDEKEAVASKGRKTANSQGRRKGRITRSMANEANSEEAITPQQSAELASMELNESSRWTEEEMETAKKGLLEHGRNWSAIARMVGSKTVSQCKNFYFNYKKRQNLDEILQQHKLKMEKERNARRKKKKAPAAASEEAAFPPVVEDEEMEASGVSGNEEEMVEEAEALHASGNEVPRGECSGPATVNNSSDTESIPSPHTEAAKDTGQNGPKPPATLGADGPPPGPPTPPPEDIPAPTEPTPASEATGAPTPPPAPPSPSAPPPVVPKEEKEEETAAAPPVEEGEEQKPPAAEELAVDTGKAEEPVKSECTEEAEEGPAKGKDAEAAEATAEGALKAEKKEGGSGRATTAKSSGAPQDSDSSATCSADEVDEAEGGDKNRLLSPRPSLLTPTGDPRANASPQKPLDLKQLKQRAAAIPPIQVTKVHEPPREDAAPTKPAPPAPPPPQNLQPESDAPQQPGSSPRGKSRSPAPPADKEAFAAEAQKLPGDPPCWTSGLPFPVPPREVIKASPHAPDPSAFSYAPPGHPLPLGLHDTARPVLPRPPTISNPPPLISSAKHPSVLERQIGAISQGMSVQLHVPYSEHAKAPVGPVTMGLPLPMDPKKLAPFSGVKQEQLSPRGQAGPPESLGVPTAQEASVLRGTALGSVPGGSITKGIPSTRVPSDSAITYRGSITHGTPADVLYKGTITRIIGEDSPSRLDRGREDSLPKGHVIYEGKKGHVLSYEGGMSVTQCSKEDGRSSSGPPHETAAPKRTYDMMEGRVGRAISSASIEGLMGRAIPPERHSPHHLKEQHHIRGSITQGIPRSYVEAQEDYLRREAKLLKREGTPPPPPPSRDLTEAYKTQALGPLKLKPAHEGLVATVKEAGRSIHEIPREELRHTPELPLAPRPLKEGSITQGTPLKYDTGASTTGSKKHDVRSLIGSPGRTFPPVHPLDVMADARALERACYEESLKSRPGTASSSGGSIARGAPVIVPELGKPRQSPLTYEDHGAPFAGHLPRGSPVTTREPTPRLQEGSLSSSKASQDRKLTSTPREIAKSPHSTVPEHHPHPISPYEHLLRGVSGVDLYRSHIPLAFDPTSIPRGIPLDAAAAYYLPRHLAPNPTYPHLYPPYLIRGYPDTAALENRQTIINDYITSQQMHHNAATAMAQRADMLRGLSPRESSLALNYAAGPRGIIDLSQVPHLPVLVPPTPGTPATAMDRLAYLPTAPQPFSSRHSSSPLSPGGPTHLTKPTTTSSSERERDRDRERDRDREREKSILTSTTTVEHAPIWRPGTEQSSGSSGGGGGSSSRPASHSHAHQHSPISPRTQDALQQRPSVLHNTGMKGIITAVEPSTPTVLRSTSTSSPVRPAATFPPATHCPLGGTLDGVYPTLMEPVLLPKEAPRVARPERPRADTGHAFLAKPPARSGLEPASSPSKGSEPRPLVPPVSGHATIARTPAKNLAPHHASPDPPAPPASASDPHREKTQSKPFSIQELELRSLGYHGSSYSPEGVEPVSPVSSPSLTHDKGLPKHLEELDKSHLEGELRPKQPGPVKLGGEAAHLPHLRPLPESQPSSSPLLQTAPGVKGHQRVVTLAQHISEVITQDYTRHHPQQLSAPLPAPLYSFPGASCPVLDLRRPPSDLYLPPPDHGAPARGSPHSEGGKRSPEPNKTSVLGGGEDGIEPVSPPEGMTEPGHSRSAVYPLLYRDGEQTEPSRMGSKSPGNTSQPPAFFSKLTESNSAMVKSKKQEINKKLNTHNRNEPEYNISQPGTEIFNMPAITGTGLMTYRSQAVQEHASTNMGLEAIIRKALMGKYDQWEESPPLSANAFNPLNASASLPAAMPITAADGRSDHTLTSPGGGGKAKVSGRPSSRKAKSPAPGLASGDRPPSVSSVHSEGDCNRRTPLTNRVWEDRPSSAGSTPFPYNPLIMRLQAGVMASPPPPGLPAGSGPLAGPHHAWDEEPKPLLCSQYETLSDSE
Neuropeptide Y receptor type 2, sequence (P49146 whole entry): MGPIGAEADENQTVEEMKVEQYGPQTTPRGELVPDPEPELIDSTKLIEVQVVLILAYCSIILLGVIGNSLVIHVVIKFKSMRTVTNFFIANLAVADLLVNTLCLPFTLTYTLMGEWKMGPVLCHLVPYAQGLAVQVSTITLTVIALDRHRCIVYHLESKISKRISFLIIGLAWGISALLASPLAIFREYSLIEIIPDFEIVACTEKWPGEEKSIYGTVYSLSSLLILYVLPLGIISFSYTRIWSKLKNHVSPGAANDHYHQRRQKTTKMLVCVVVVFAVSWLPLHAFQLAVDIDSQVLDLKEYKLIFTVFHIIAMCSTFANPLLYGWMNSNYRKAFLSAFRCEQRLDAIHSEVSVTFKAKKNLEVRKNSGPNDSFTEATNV
Eukaryotic translation initiation factor 4E, sequence (P63073 whole entry): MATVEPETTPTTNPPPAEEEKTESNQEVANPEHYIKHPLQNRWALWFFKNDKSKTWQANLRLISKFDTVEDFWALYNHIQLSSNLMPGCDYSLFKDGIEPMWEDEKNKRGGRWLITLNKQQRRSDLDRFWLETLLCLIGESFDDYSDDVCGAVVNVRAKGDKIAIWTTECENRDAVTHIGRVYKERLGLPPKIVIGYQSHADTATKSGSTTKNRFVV
G-protein coupled receptor 35, sequence (Q9HC97 whole entry): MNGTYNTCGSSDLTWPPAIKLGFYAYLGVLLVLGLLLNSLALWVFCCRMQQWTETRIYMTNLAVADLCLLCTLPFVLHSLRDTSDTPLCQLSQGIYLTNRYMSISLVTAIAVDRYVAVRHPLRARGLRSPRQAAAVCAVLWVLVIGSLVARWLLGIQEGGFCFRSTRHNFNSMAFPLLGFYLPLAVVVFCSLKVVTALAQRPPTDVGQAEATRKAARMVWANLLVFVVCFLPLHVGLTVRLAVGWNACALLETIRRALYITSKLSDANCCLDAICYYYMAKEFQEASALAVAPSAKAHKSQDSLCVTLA
Neuropeptide Y receptor type 1, sequence (P25929 whole entry): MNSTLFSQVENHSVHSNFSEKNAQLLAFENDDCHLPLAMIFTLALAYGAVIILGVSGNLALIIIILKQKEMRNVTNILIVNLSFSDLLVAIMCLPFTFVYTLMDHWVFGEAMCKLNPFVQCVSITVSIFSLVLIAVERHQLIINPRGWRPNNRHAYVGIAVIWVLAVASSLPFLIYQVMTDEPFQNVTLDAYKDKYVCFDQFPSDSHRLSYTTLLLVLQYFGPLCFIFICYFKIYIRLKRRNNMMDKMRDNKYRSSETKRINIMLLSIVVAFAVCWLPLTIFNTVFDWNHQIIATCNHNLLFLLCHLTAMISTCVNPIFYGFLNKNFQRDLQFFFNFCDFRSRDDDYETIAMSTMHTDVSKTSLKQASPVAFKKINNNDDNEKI

CCCOc1cc(N(CC)CC)ccc1/C=C(/C#N)c1nc2cc(C)ccc2[nH]1
EC50 [1]: 41.5 µM (active) | IC50 [2]: 0.573 µM (active) | EC50 [3]: > 60 µM (not active) | EC50 [4]: 1.19 µM (active) | EC50 (Streptokinase A): 31.9 µM (active) | EC50 [5]: > 79.4 µM (not active) | EC50 [6]: 0.937 µM (active) | EC50 [7]: > 79.4 µM (not active) | EC50 [8]: > 79.4 µM (not active) | EC50 (Streptococcus): > 150 µM (not active)

COc1ccc(N=C(S)NC(NC(=O)c2cccc(Cl)c2)C(Cl)(Cl)Cl)c([N+](=O)[O-])c1 (stereo not drawn)
EC50 [9]: > 35.4 µM (not active) | EC50 [10]: 16.7 µM (not active) | EC50 (HEK293): > 35.4 µM (not active) | EC50 [3]: > 30 µM (not active) | IC50 [11]: > 66 µM (inactive) | EC50 [6]: 1.6 µM (active) | IC50 [12]: > 66 µM (inactive)

O=C1C=CC(=NNc2ccccc2)C=CC1=O
EC50 [1]: 2.86 µM (active) | CC50 (Vero): 23 µM (active) | EC50 [13]: 2.47 µM (active) | IC50 (Genome polyprotein): 91.2 µM (active) | EC50 [14]: 0.237 µM (active) | IC50 (NS3): 12.6 µM (not active) | AC50 [15]: 2.02 µM (active) | EC50 [16]: > 160 µM (inactive) | EC50 [17]: 0.887 µM (active) | EC50 (Streptococcus): 9.57 µM (active)

Nc1ccc(Cc2nc3cc4ccccc4cc3[nH]2)cc1
CC50 [18]: > 50 µM (active) | IC50 (cells): 15.1 µM (active)

O=C(C1=C(O)C(=O)N(CCCN2CCOCC2)C1c1ccc(Cl)cc1)c1cc2ccccc2o1 (stereo not drawn)
IC50 [19]: 5.14 µM (active) | IC50 [20]: > 39.8 µM (not active)

COc1ccc(OC)c(Nc2nc(=O)c3cccnc3s2)c1
IC50 [21]: 50 µM (inactive) | IC50 [22]: > 39.8 µM (not active)
